Results reported in patent US20080249142A1, “HYDRO[…] OF ME[…]” (Targacept, Inc., priority 2004, published 2008).

Experiment: physical and chemical properties of the hydroxybenzoate salts (stated, no method described)
Format: physicochemical
Conditions: solid salt, free-flowing crystalline powder

**Q.** With “(2S)-(4E)-N-methyl-5-(5-isopropoxy-3-pyridinyl)-4-penten-2-amine p-hydroxybenzoate [Example 1]” as the substance, how does the “physical and chemical stability of the salt” value read?
**A.** Its value is “physically and chemically stable”.
